Data published in patent US8946426B2, “Substituted bicyclic heterocyclic compounds as gamma secretase modulators” (Janssen Pharmaceuticals, Inc., priority 2009, dated 2015).

Tests used:
Aβtotal [1] = assay: Method 1: Aβtotal sandwich ELISA in supernatant of SKNBE2 cells carrying APP 695-wild type (Tables 7a, 7b); assay type: cell-based
In short: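 SKNBE2 cells expressing wild-type APP695 were exposed to compound for 18 Hours in Ultraculture with 1% glutamine. Aβtotal in the supernatant was read by 6E10-capture/biotinylated 4G8 sandwich ELISA with a fluorogenic peroxidase read-out, and WST-1 checked toxicity. IC50 came from a 4-parameter fit of percent inhibition or percent of control versus concentration.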

Aβ42 [2] = assay: Method 1: Aβ42 sandwich ELISA in supernatant of SKNBE2 cells carrying APP 695-wild type (Tables 7a, 7b); assay type: cell-based
In short: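 IC50 values were derived with a 4-parameter equation, fitting either percent inhibition or percent of compound-free Aβ42 as the control. The Aβ42 came from supernatants of APP695 wild-type SKNBE2 cells treated for 18 hours. It was measured by ELISA with anti-Aβ42 capture, biotinylated 3D6 and TMB absorbance at 450 nm.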

Aβ42 [3] = assay: In vivo efficacy: Aβ42 lowering in brain after single oral dose (Table 8); conditions: mouse brain soluble fraction, ELISA, compared to untreated animals
Text: (§1) To determine whether acute administration of an Aβ42 lowering agent would reduce Aβ42 levels in vivo, non-transgenic rodents, e.g. mice or rats were used. Alternatively, two to three month old Tg2576 mice expressing APP695 containing the “Swedish” variant can be used or a transgenic mouse model developed by Dr. Fred Van Leuven (K.U.Leuven, Belgium) and co-workers, with neuron-specific expression of a clinical mutant of the human amyloid precursor protein [V7171] (Moechars et al., 1999 J. Biol. Chem. 274, 6483). Young transgenic mice have high levels of Aβ in the brain but no detectable Aβ deposition. At approximately 6-8 months of age, the transgenic mice start to display spontaneous, progressive accumulation of β-amyloid (Aβ) in the brain, eventually resulting in amyloid plaques within the subiculum, hippocampus and cortex. Animals treated with the Aβ42 lowering agent were examined and compared to those untreated or treated with vehicle and brain levels of soluble Aβ42 and total Aβ would be quantitated by standard techniques, for example, using ELISA. Treatment periods varied from hours to days and were adjusted based on the results of the Aβ42 lowering once a time course of onset of effect could be established.
(§2) A typical protocol for measuring Aβ42 lowering in vivo is shown but it is only one of many variations that could be used to optimize the levels of detectable Aβ. For example, Aβ42 lowering compounds were formulated in 20% of Captisol® (a sulfobutyl ether of β-cyclodextrin) in water or 20% hydroxypropyl β cyclodextrin. The Aβ42 lowering agents were administered as a single oral dose or by any acceptable route of administration to overnight fasted animals. After four hours, the animals were sacrificed and Aβ42 levels were analysed.
(§3) Blood was collected by decapitation and exsanguinations in EDTA-treated collection tubes. Blood was centrifuged at 1900 g for 10 min at 4° C. and the plasma recovered and flash frozen for later analysis. The brain was removed from the cranium and hindbrain. The cerebellum was removed and the left and right hemisphere were separated. The left hemisphere was stored at −18° C. for quantitative analysis of test compound levels. The right hemisphere was rinsed with phosphate-buffered saline (PBS) buffer and immediately frozen on dry ice and stored at −80° C. until homogenization for biochemical assays.
(§4) Mouse brains were resuspended in 10 volumes of 0.4% DEA (diethylamine)/50 mM NaCl pH 10 (for non-transgenic animals) or 0.1% 3-[(3-cholamidopropyl)-dimethyl-ammonio]-1-propanesulfonate (CHAPS) in tris buffered saline (TBS) (for transgenic animals) containing protease inhibitors (Roche-11873580001 or 04693159000 per gram of tissue, e.g. for 0.158 g brain, add 1.58 ml of 0.4% DEA. All samples were sonicated for 30 sec on ice at 20% power output (pulse mode). Homogenates were centrifuged at 221.300×g for 50 min. The resulting high speed supernatants were then transferred to fresh tubes and were optionally further purified before the next step. A portion of the supernatant was neutralized with 10% 0.5 M Tris-HCl and this was used to quantify Aβtotal.
(§5) The obtained supernatants were purified with Water Oasis HLB reverse phase columns (Waters Corp., Milford, Mass.) to remove non-specific immunoreactive material from the brain lysates prior subsequent Aβ detection. Using a vacuum manifold, all solutions were passed through the columns at a rate of approximately 1 ml per minute, so the vacuum pressure was adjusted accordingly throughout the procedure. Columns were preconditioned with 1 ml of 100% MeOH, before equilibration with 1 ml of H2O. Non-neutralized brain lysates were loaded onto the columns. The loaded samples were then washed twice with the first wash performed with 1 ml of 5% MeOH, and the second wash with 1 ml of 30% MeOH. Finally, the Aβ was eluted from the columns and into 100×30 mm glass tubes, with a solution of 90% MeOH with 2% NH4OH. […]

Aβtotal [4] = assay: In vivo efficacy: Aβtotal lowering in brain after single oral dose (Table 8); conditions: mouse brain soluble fraction, ELISA, compared to untreated animals
Text: as §1, §2, §3, §4, §5

Aβtotal [5] = assay: Method 2: Aβtotal Alphalisa in supernatant of SKNBE2 cells carrying APP 695-wild type (Table 7c); assay type: cell-based; conditions: Method 2, Alphalisa, overnight incubation
Protocol: (§6) Screening was carried out using SKNBE2 cells carrying the APP 695-wild type, grown in Dulbecco's Modified Eagle's Medium/Nutrient mixture F-12 (DMEM/NUT-mix F-12) (HAM) provided by Invitrogen (cat no. 10371-029) containing 5% Serum/Fe supplemented with 1% non-essential amino acids, 1-glutamine 2 mM, Hepes 15 mM, penicillin 50 U/ml (units/ml) en streptomycin 50 μg/ml. Cells were grown to near confluency.
(§7) The screening was performed using a modification of the assay as described in Citron et al (1997) Nature Medicine 3: 67. Briefly, cells were plated in a 384-well plate at 10^4 cells/well in Ultraculture (Lonza, BE12-725F) supplemented with 1% glutamine (Invitrogen, 25030-024), 1% non-essential amino acid (NEAA), penicillin 50 U/ml en streptomycin 50 μg/ml in the presence of test compound at different test concentrations. The cell/compound mixture was incubated overnight at 37° C., 5% CO2. The next day the media were assayed by two sandwich immuno-assays, for Aβ42 and Aβtotal.
(§8) Aβtotal and Aβ42 concentrations were quantified in the cell supernatant using the Aphalisa technology (Perkin Elmer). Alphalisa is a sandwich assay using biotinylated antibody attached to streptavidin coated donorbeads and antibody conjugated to acceptor beads. In the presence of antigen, the beads come into close proximity. The excitation of the donor beads provokes the release of singlet oxygen molecules that trigger a cascade of energy transfer in the acceptor beads, resulting in light emission. To quantify the amount of Aβ42 in the cell supernatant, monoclonal antibody specific to the C-terminus of Aβ42 (JRF/cAβ42/26) was coupled to the receptor beads and biotinylated antibody specific to the N-terminus of Aβ (JRF/AβN/25) was used to react with the donor beads. To quantify the amount of Aβtotal in the cell supernatant, monoclonal antibody specific to the N-terminus of Aβ (JRF/AβN/25) was coupled to the receptor beads and biotinylated antibody specific to the mid region of Aβ (biotinylated 4G8) was used to react with the donor beads.
(§9) To obtain the values reported in Table 7c, the data were calculated as percentage of the maximum amount of amyloid Beta 42 measured in the absence of the test compound. The sigmoidal dose response curves were analyzed using non-linear regression analysis with percentage of the control plotted against the log concentration of the compound. A 4-parameter equation was used to determine the IC50.

Aβ42 [6] = assay: Method 2: Aβ42 Alphalisa in supernatant of SKNBE2 cells carrying APP 695-wild type (Table 7c); assay type: cell-based; conditions: Method 2, Alphalisa, overnight incubation
Protocol: as §6, §7, §8, §9

[7] = Homo sapiens, SKNBE2, Table 7b, averaged IC50, non-linear regression of percentage of control vs log concentration, 4-parameter equation
[8] = Homo sapiens, Table 7a, SKNBE2 cells, compounds 18 h, XLfit 4-parameter fit of percent inhibition, top/bottom fixed to 100/0, hill slope 1
[9] = Table 7a, SKNBE2 cells, compounds 18 h, XLfit 4-parameter fit of percent inhibition, top/bottom fixed to 100/0, hill slope 1
[10] = Table 7b, averaged IC50, non-linear regression of percentage of control vs log concentration, 4-parameter equation

Row | SMILES | Aβ42 (% Ctrl)_Mean (Aβ42 [3]) | Aβtotal (% Ctrl)_Mean (Aβtotal [4]) | IC50 (Aβtotal [1]; [10]) | IC50 (Aβ42 [2]; [10]) | further results
1 | COc1cc(Nc2cccn3cc(-c4ccc(F)cc4)nc23)ccc1-c1ocnc1C [Compound 1] |  |  |  |  | melting point: 163.2 °C; IC50 (Aβtotal [1]; [7]): > 5 µM; IC50 (Aβtotal [1]; [8]): > 5 µM; IC50 (Aβ42 [2]; [7]): 0.2 µM; IC50 (Aβ42 [2]; [8]): 0.203 µM
2 | COc1cccc(-c2nc3c(Nc4ccc(-c5ocnc5C)c(OC)c4)cccn3c2C)c1 [Compound 2] | 95 % Ctrl | 104 % Ctrl |  |  | IC50 (Aβtotal [1]; [7]): > 3 µM; IC50 (Aβtotal [1]; [8]): > 3 µM; IC50 (Aβ42 [2]; [7]): 0.02 µM; IC50 (Aβ42 [2]; [8]): 0.022 µM
3 | COc1cc(Nc2cccn3cc(-c4ccc(F)cc4)nc23)ccc1-c1cnc(C)o1 [Compound 3] |  |  |  |  | melting point: 219.1 °C; IC50 (Aβtotal [1]; [7]): > 10 µM; IC50 (Aβtotal [1]; [8]): > 10 µM; IC50 (Aβ42 [2]; [7]): 0.178 µM; IC50 (Aβ42 [2]; [8]): 0.196 µM
4 | COc1cc(Nc2cccc3c2nc(-c2ccc(F)cc2)n3C(C)C)ccc1-c1cnc(C)o1.Cl.Cl [Compound 25] | 76 % Ctrl | 96 % Ctrl | > 3 µM | 0.023 µM | IC50 (Aβtotal [1]; [9]): > 3 µM; IC50 (Aβ42 [2]; [9]): 0.024 µM
5 | COc1cc(Nc2cc(C(F)(F)F)cc3c2nc(-c2ccc(F)cc2)n3C)ccc1-c1cnc(C)o1 [Compound 30] | 96 % Ctrl | 92 % Ctrl | > 10 µM | 0.035 µM | 
6 | COc1cc(Nc2nccc3c2nc(-c2ccc(F)cc2F)n3C)ccc1-c1cnc(C)o1 [Compound 31] | 91 % Ctrl | 102 % Ctrl | > 3 µM | 0.078 µM | IC50 (Aβtotal [1]; [9]): > 3 µM; IC50 (Aβ42 [2]; [9]): 0.076 µM
7 | COc1ccc(C)c(-c2cn3cccc(Nc4ccc(-c5cnc(C)o5)cc4)c3n2)c1 [Compound 40] | 77 % Ctrl | 102 % Ctrl | > 3 µM | 0.012 µM | IC50 (Aβtotal [1]; [9]): > 3 µM; IC50 (Aβ42 [2]; [9]): 0.011 µM
8 | COc1ccc(C)c(-c2cn3cccc(Nc4ccc(-c5cnc(C)o5)c(F)c4)c3n2)c1 [Compound 41] | 93 % Ctrl | 87 % Ctrl | > 3 µM | 0.126 µM | 
9 | COc1cc(Nc2nccc3c2nc(-c2ccc(F)cc2F)n3C)ccc1-c1ocnc1C [Compound 54] | 101 % Ctrl | 104 % Ctrl | > 10 µM | 0.49 µM | 
10 | Cc1cc2c(nc(-c3ccc(F)cc3)n2C)c(Nc2ccc(-c3cnc(C)o3)cc2)n1 [Compound 58] | 89 % Ctrl | 105 % Ctrl | > 10 µM | 0.24 µM | 
11 | COc1cc(Nc2nc(C)cc3c2nc(-c2ccc(F)cc2)n3C)ccc1-c1cnc(C)o1 [Compound 59] | 97 % Ctrl | 95 % Ctrl | > 3 µM | 0.072 µM | 
12 | COc1cccc(-c2nc3c(Nc4ccc(-c5cnc(C)o5)c(OC)c4)cccc3n2C)c1 [Compound 63] | 56 % Ctrl | 90 % Ctrl | > 3 µM | 0.011 µM | 
13 | COc1cc(Nc2ccc(-c3cnc(C)o3)c(OC)c2)c2nc(-c3ccc(F)cc3)n(C)c2c1 [Compound 95] | 47 % Ctrl | 88 % Ctrl | > 3 µM | 0.023 µM | 
14 | COc1cccc(-c2nc3c(Nc4ccc(-c5cnc(C)o5)c(OC)c4)nc(C)cc3n2C)c1 [Compound 97] | 71 % Ctrl | 102 % Ctrl | > 3 µM | 0.021 µM | 
15 | Cc1ncc(-c2ccc(Nc3cc(C(F)(F)F)cc4c3nc(-c3ccc(F)cc3)n4C)cn2)o1 [Compound 101] | 77 % Ctrl | 92 % Ctrl |  |  | IC50 (Aβtotal [5]): > 10 µM; IC50 (Aβ42 [6]): 0.046 µM
16 | COc1cc(Nc2cc(F)cc3c2nc(N2CCCC2)n3C)ccc1-c1cnc(C)o1 [Compound 104] | 110 % Ctrl | 97 % Ctrl |  |  | IC50 (Aβtotal [5]): > 10 µM; IC50 (Aβ42 [6]): 0.501 µM
17 | COc1cc(Nc2cc(C(F)(F)F)cn3cc(C)nc23)ccc1-c1ocnc1C.Cl.Cl [Compound 141] | 87 % Ctrl | 89 % Ctrl | > 10 µM | 0.251 µM | 
18 | COc1cc(Nc2cc(F)cn3cc(CC(C)C)nc23)ccc1-c1ocnc1C.Cl [Compound 157] | 77 % Ctrl | 100 % Ctrl | > 10 µM | 0.081 µM | 
19 | COc1cc(Nc2cc(C(F)(F)F)cn3cc(C(C)=O)nc23)ccc1-c1ocnc1C [Compound 165] |  |  |  |  | melting point: 183.6 °C; IC50 (Aβtotal [1]; [7]): > 30 µM; IC50 (Aβ42 [2]; [7]): 0.288 µM
20 | Cc1ncc(-c2ccc(Nc3cccn4c(C(C)C)c(-c5ccc(F)cc5)nc34)cc2)o1 [Compound 175] |  |  |  |  | melting point: 157.2 °C; IC50 (Aβtotal [1]; [7]): > 3 µM; IC50 (Aβ42 [2]; [7]): 0.033 µM
21 | Cc1cn2cc(Br)nc(Nc3ccc(-c4cnc(C)o4)cc3)c2n1 [Compound 179] |  |  |  |  | melting point: 200.1 °C; IC50 (Aβtotal [1]; [7]): > 3 µM; IC50 (Aβ42 [2]; [7]): > 3 µM
22 | Cc1ncc(-c2ccc(Nc3cc(C(F)(F)F)cn4cc(C(=O)N(C)C)nc34)cc2F)o1 [Compound 181] | 104 % Ctrl | 105 % Ctrl | > 3 µM | > 3 µM | 
